Assays:
SK-MEL-24 cells = assay: Cell proliferation (MTT) assay; format: cell-based; conditions: Homo sapiens, SK-MEL-24, 72 h treatment
Description: (§1) After 72 h treatments, cell culture was added with 10 μl of 5 mg/ml MTT agent (3-(4,5-Dimethylthiazol-2-yl)-2,5-diphenyltetrazolium bromide, Sigma St. Louis, Mo.) and incubated for 4 h, followed by addition of 100 μl of 10% SDS solution and a further incubation overnight. The plates were then read on a microplate reader using the test wavelength of 570 nm and the reference wavelength of 670 nm. Five duplicates were done to determine each data point. GI50 was calculated as previously reported (21).

RPMI-7951 cells = assay: Cell proliferation (MTT) assay; format: cell-based; conditions: Homo sapiens, RPMI-7951, 72 h treatment
Description: as §1

[1] = tested on: PLX4032-resistant melanoma cell lines; conditions: two PLX4032-resistant melanoma cell lines; cited from earlier work

Structure (SMILES) | GI50 (SK-MEL-24 cells) [µM] | GI50 (RPMI-7951 cells) [µM] | effect in combination with PLX4032 [1]
Cn1cnc2c(F)c(Nc3ccc(Br)cc3Cl)c(C(=O)NOCCO)cc21 [AZD6244, selumetinib] | > 1 | > 1 | 
CS(=O)(=O)CCNCc1ccc(-c2ccc3ncnc(Nc4ccc(OCc5cccc(F)c5)c(Cl)c4)c3c2)o1 [Lapatinib] |  |  | apparently synergistic effects

Reference: patent publication US11680297B2, “Activities of multiple cancer-related pathways are associated with BRAF mutation and predict the resistance to BRAF/MEK inhibitors in melanoma cells” (THE JOHNS HOPKINS UNIVERSITY, priority 2013, dated 2023)
